According to patent US9284576B2, “In vitro hepatic differentiation” (Cambride Enterprise Limited, priority 2010, dated 2016):
Peptide text beside a SMILES is read from it. * marks the point of attachment. Cbz = O=C(OCc1ccccc1)*

Tests used:
[1] = test system: α1-antitrypsin deficient dhIPSC derived hepatocytes; assay: proteosome blocking assay with ELISA for α1-antitrypsin; type: cell-based, human; details: MG132 added to medium overnight (16 hours), A1ATD vs control hIPSC derived hepatocytes, FIG. 10
Experimental: High binding surface COSTAR 96-well plates (Corning, N.Y., USA) were coated overnight with affinity-purified rabbit polyclonal antibodies against α1-antitrypsin (Abcam 31657, Cambridge, UK) at 2 μg/ml in carbonate/bicarbonate buffer (Na2CO3/NAHCO3, pH 9.5). After washing (0.9% w/v NaCl, 0.05% v/v Tween 20), the plates were blocked for two hours in blocking buffer (PBS, 0.25% w/v BSA, 0.05% v/v Tween 20). Samples (culture medium or cells lysed in 50 μl of Nonidet lysis buffer (150 mM NaCl, 50 mM Tris-Cl, pH 7.5, 1% (v/v) Nonidet P-40), and standards (plasma purified M or Z α1-antitrypsin) were diluted in blocking buffer and 50 μl added to each well then incubated for two hours. After washing, the wells were incubated with either 9C5 or 2C1 monoclonal antibodies (1 μg/ml diluted in blocking buffer), and incubated for two hours. Bound monoclonal antibodies were detected with rabbit anti-mouse IgG HRP-labelled antibody (Sigma Aldrich, Haverhill, UK, 1:20,000) for one hour. The reaction was developed with TMB liquid substrate (Sigma Aldrich, Haverhill, UK) for 10 minutes in the dark and the reaction was stopped with 1 M H2SO4. Absorbance was read at 450 nm on a Thermo-max microplate reader (Molecular Devices, Sunnyvale, Calif., U.S.A.). […]

[2] = test system: dhIPSC derived hepatocytes; assay: Metabolic enzyme response to glucagon stimulation (qRT-PCR of PEPCK, G6P, IGFBP1); type: cell-based, human; details: 100 nM glucagon hydrochloride; 0, 1, 2 and 3 hours after stimulation; FIG. 16
Experimental: dhIPSC derived hepatocytes were incubated for six hours in serum-free, high-glucose DMEM supplemented with 2 mM L-glutamine, […] penicillin, 100 ug/ml streptomycin, and 0.5% Bovine Serum Albumin (all from Sigma-Aldrich). Cells were stimulated with 100 nM glucagon […] hydrochloride (Novo Nordisk, Bagsvard, Denmark) or PBS (Sigma-Aldrich) as a negative control. Total RNA was harvested using the RNeasy Kit (Qiagen, Hilden, Germany) at 0, 1, 2 or 3 hours after stimulation and purified as per manufacturer's guidelines. Reverse transcription was performed on 1 ug RNA in a 25 μl reaction mixture containing 2000 Moloney Murine Leukemia Virus Reverse Transcriptase, 500 ng random primers and 0.5 mM deoxynucleotide triphosphates (all from Promega, Wis., Ma) as per manufacturer's guidelines. cDNA was subjected to real-time quantitative PCR on an ABI7900 detection system (Applied Biosystems, Foster City, Calif.) using Tagman PCR Mastermix (Applied Biosystems) and gene-specific forward and reverse primers and fluorogenic probes. All results were normalised to human 36B4 as a reference gene. Primers and probes for PEPCK (Hs00159918—1), G6P (Hs00609178—1) and IGFBP1 (Hs00426285 ml) were purchased as premade stocks from Applied Biosystems. Oligonucleotides for 36B4 were designed in-house and synthesised by Sigma-Aldrich (Forward, 5′-[…]-3′; Reverse, 5′-[…]-3′; Probe, 5′-[JOEE][…][TAMRA]-3′).

Compound | intracellular α1-antitrypsin polymers after proteasome inhibition [1] | expression of glucagon-responsive genes PEPCK, G6P and IGFBP1 [2]
CC(C)C[C@@H](C=O)NC(=O)[C@H](CC(C)C)NC(=O)[C@H](CC(C)C)NC(=O)OCc1ccccc1 [MG132] (Cbz-Leu-Leu-Leu-aldehyde) | disease specific intracellular increase in α1-antitrypsin polymers | 
glucagon hydrochloride |  | induction of expression of three canonical glucagon-responsive genes
